The values that follow come from article PMC12040169 (PLOS Biology, 2025).

The nature of the first data set: in vitro. The settings on record: human, hela cells, % viability.
The viability is a read-out of living cells in per cent, often relative to untreated cells. Regarding `CC(NCc1ccc(S(N)(=O)=O)cc1)=C1C(=O)c2ccccc2C1=O` [CBK262692], the viability at 28.5 h, 10 µM is 87%. Take `COCc1nnc(Sc2nccnc2N2CCCC2)s1` [CBK093736]: the viability at 28.5 h, 10 µM is 95.4%. Consider `CC(C)CC(=O)N[C@@H](C)Cn1nc(-c2cccs2)oc1=O` [CBK284336], for which the viability at 28.5 h, 10 µM came out at 82.4%. As for `Cc1cnc(CNS(=O)(=O)c2cnn(-c3ccccc3)c2C)cn1` [CBK062335], the viability at 28.5 h, 10 µM was 96.5%. With `O=C1N[C@H]2CCCN(C(=O)c3cc(=O)[nH]c(=O)[nH]3)[C@H]2C/C=C/CCOc2ccccc21` [CBK292065], the viability at 28.5 h, 10 µM was determined as 107%. On the same count and under the same terms, for `Cn1c(=O)c2c(nc(CN3CCN(C(=O)c4ccco4)CC3)n2Cc2ccccc2)n(C)c1=O` [CBK269437] the value was 93%; for `CCc1cc(C(=O)NC(Cn2ccnc2)C(C)(C)C)cc(=O)[nH]1` (stereo not shown) [CBK304410], 101%; for `O=C(c1ccco1)N1CCN(c2cncc(-c3ccc(F)cc3F)n2)CC1` [CBK065818], 93.7%. In the case of `CN1CCN(c2ccc([N+](=O)[O-])c(NCc3ccccc3)c2)CC1` [CBK042199], the viability at 28.5 h, 10 µM turned out to be 93.7%. On the same count and under the same terms, for `O=C(O)COCC(=O)N1CCN(C(c2ccccc2)c2ccccc2)CC1` [CBK232579] the value was 84.3%. Still for that read-out and setting: for `COc1cccc2ncn(CCCc3c(C)n[nH]c3C)c(=O)c12` [CBK307153] the value was 82.9%; for `Cc1ccc2c(O)c(C(=O)NCc3cccs3)cnc2c1` [CBK159997], 78.2%.

As to `[O-][n+]1c2c([n+]([O-])c3c1CCCC3)CCCCC2` [CBK263586], the viability at 28.5 h, 10 µM worked out at 95.5%.

As to `COc1ccc(-c2cc(-c3c(O)ccc4c(C)cc(=O)oc34)nc(N)n2)cc1OC` [CBK074619], the viability at 28.5 h, 10 µM is 85%. For `O=C(CSc1nnc(-c2ccco2)c(-c2ccco2)n1)Nc1ccccc1[N+](=O)[O-]` [CBK265762], the viability at 28.5 h, 10 µM came out at 107%.

`CCN(C(C)COC)S(=O)(=O)c1cccc(Cl)c1Cl` (stereo not shown) [CBK305146]: the viability at 28.5 h, 10 µM was determined as 98.4%. `Nc1cccc(Sc2ncccn2)c1` [CBK085844]: the viability at 28.5 h, 10 µM turned out to be 93.4%. Turning to `Cc1noc(C)c1CN1CCC(c2ccccc2)CC1` [CBK306001], the viability at 28.5 h, 10 µM is 89.9%. For the compound `O=C(NC(c1ccc(Cl)cc1)c1cnccn1)C1CCN(C(=O)c2ccccc2)CC1` (stereo not shown) [CBK059634], the viability at 28.5 h, 10 µM came to 109%. In the case of `CCNc1cccnc1N1CCN(C(=O)CCC(=O)c2ccc(NS(C)(=O)=O)cc2)CC1` [CBK010701], the viability at 28.5 h, 10 µM worked out at 98.2%.

With `CC(C)(Oc1ccc(Cl)cc1)C(=O)Nc1ccc(CN2C(=O)CNC2=O)cc1` [CBK296668], the viability at 28.5 h, 10 µM was determined as 103%. As for `O=[N+]([O-])c1ccc(O)c(/C=N/Nc2nc(Nc3ccc(Cl)cc3)nc(N3CCOCC3)n2)c1` [CBK260918], the viability at 28.5 h, 10 µM worked out at 90.2%. With `O=C(NCc1csc(-c2ccccc2)n1)C(F)(F)F` [CBK092340], the viability at 28.5 h, 10 µM is 102%. `O=C1NC=CCC12CCCN(S(=O)(=O)c1ccc(F)cc1)C2` (stereo not shown) [CBK284797]: the viability at 28.5 h, 10 µM was found to be 93.5%. Same read-out and setting: for `Fc1ccc(-c2nccnc2NCc2ccncc2)cc1` [CBK088964] the value was 98.8%. For `CC(NC(=O)N(CCC#N)C1CCCCC1)c1ccccc1` (stereo not shown) [CBK156382], the viability at 28.5 h, 10 µM is 97.2%. As to `COCc1cn([C@H]2CO[C@H]3[C@@H]2OC[C@H]3OC(=O)Nc2ccc(C)cc2)nn1` [CBK289489], the viability at 28.5 h, 10 µM turned out to be 90.6%. `Cc1ccccc1Oc1ccccc1NC(=O)CN1CCCCC1` [CBK015781C]: the viability at 28.5 h, 10 µM was 98.3%. Still for that read-out and setting: to `O=C(O)c1cc(C=Cc2ccc(OC(F)F)cc2)nc2ccccc12` [CBK297532] belongs 85.3%; to `CC(C)C(=O)Nc1cc2ccccc2c(-c2cccnc2)n1` [CBK073786], 101%. Turning to `CNC(=O)C1(Cc2ccc(-c3ccccc3)cc2)CCN(C(=O)COc2ccccc2)CC1` [CBK285766], the viability at 28.5 h, 10 µM was found to be 92.7%. Consider `COc1ccc([N+](=O)[O-])c(Oc2ccccc2OCc2ccccc2)n1` [CBK002753], for which the viability at 28.5 h, 10 µM was determined as 88%. Turning to `CN1CCCc2cc(CN3CCC4(CCCNC4=O)CC3)ccc21` [CBK284876], the viability at 28.5 h, 10 µM came out at 101%. As to `NCCSc1cc(C(F)(F)F)nc2ccccc12` [CBK017035], the viability at 28.5 h, 10 µM worked out at 81.9%.

Consider `COc1ccc2sc(Nc3ccc(F)cc3)nc2c1` [CBK287641], for which the viability at 28.5 h, 10 µM is 95.3%. Regarding `O=C(O)CC(C(=O)O)c1ccc(Cl)cc1Cl` (stereo not shown) [CBK268523], the viability at 28.5 h, 10 µM stood at 95.5%.

With `CC1CCCN(C(=O)CCn2c(-c3ccncc3)cc3cccnc32)C1` (stereo not shown) [CBK282152], the viability at 28.5 h, 10 µM came out at 108%. As for `Cc1cccc(NC(=O)c2ccccc2NS(=O)(=O)c2ccc(F)c(F)c2)c1` [CBK113810], the viability at 28.5 h, 10 µM was 115%. On to `CC1(C)CC(=O)c2sc(NC(=O)c3ccc(OC(F)(F)F)cc3)nc2C1` [CBK144102], for which the viability at 28.5 h, 10 µM came to 109%. Regarding `O=C1CC(N2CCN(c3ccccc3)CC2)C(=O)N1c1cccc2ccccc12` (stereo not shown) [CBK261263], the viability at 28.5 h, 10 µM is 92.8%.

With `CCOc1ccc(-c2cncc(NCCc3ccncc3)n2)cc1` [CBK065774], the viability at 28.5 h, 10 µM was found to be 94.6%.

Consider `Cc1ccc(OCCOCCN(C)C)c(Cl)c1` [CBK265493G], for which the viability at 28.5 h, 10 µM came to 111%. On to `CC(=O)N1N=C(COc2ccc(C)cc2)OC1c1ccc(Br)cc1` (stereo not shown) [CBK294396], for which the viability at 28.5 h, 10 µM was 103%. With `CC(=O)Nc1ccc(NC2SC(=O)N(c3ccccc3)C2=O)cc1` (stereo not shown) [CBK085110], the viability at 28.5 h, 10 µM amounted to 88.4%. The same measure, in the same setting: to `Cc1ccc(N2CCN(CC(O)COc3ccc(C(=O)c4ccc(Cl)cc4)cc3)CC2)c(C)c1` (stereo not shown) [CBK266117] belongs 110%; to `Cc1ccccc1-c1nnc(SC(C)C)n1CCN(C)S(C)(=O)=O` [CBK200088], 101%. Same read-out and setting: to `COc1cc(Br)c(-c2nnn[nH]2)cc1OC` [CBK270093] belongs 108%; to `CN(C)c1cccc(-c2cc(Nc3ccc4c(c3)OCCO4)ncn2)c1` [CBK090808], 66.3%.

As for `Fc1ccc(-c2cncc(Nc3cccc(C(F)(F)F)c3)n2)c(F)c1` [CBK065763], the viability at 28.5 h, 10 µM came to 92.5%. In the case of `NS(=O)(=O)c1ccc(CCNC(=O)Nc2ccc(Cl)c(Cl)c2)cc1` [CBK269133], the viability at 28.5 h, 10 µM amounted to 90.3%. On to `CCOC(=O)c1sc2nc(N3CCOCC3)c3c(c2c1N)CCCC3` [CBK131870], for which the viability at 28.5 h, 10 µM came out at 100%.

With `CCN(CC)C(=O)C1CCCN(C(=O)NCc2ccc3c(c2)OCO3)C1` (stereo not shown) [CBK156121], the viability at 28.5 h, 10 µM was 100%. Consider `COc1cc(CN2CCN(c3cc(C)ccc3C)CC2)ccc1OCc1ccccc1` [CBK261898], for which the viability at 28.5 h, 10 µM worked out at 86.6%.

As to `Cc1cc(C)n(-c2ccc3nnc(CCC(=O)Nc4nccs4)n3n2)n1` [CBK307617], the viability at 28.5 h, 10 µM was found to be 96.8%. Regarding `COc1ccc(Cn2nc(NC(=O)Nc3ccc(N(C)C)cc3)c3ccccc32)cc1` [CBK048529], the viability at 28.5 h, 10 µM worked out at 90%. Take `CCOC(=O)N1CCN(C(=O)CCC(=O)O)CC1` [CBK287075]: the viability at 28.5 h, 10 µM is 97.3%.

As for `CN(C)C(=O)COc1cccc(Nc2nc(-c3cccc4ccccc34)cn3ccnc23)c1` [CBK037393], the viability at 28.5 h, 10 µM was found to be 82.1%. Consider `O=C1CCC(C(=O)N2CC3(CCCC3)c3c(F)cccc32)CN1` (stereo not shown) [CBK304914], for which the viability at 28.5 h, 10 µM came to 85.7%. As to `Cc1ccc(NC(=O)CCc2cccnc2)c(C)n1` [CBK200386], the viability at 28.5 h, 10 µM was 101%. Turning to `O=C(COc1ccccc1[N+](=O)[O-])Nc1cc(C(=O)O)cc(C(=O)O)c1` [CBK263983], the viability at 28.5 h, 10 µM was 93.9%. For the compound `COc1ccc(N2C(=O)CC(n3c(CCCCO)nc4ccccc43)C2=O)cc1` (stereo not shown) [CBK268895], the viability at 28.5 h, 10 µM was determined as 107%. Consider `Cc1ccccc1-c1nnc(SC(C)C)n1CCN(C)CC(F)(F)F` [CBK200090], for which the viability at 28.5 h, 10 µM was found to be 92.3%. For the compound `CN1C(=O)C2(CC(=O)N(CCC3CCCCC3)C2=O)c2ccccc21` (stereo not shown) [CBK075461], the viability at 28.5 h, 10 µM amounted to 109%. Consider `CC1(C)C(N(O)C(=O)Nc2cccc3ccccc23)N(c2cccc3ccccc23)C(=O)N1CC(=O)NN` (stereo not shown) [CBK261004], for which the viability at 28.5 h, 10 µM worked out at 88.2%.

Consider `O=C(O)c1cccc(NS(=O)(=O)c2ccc(Cl)c(C(=O)Nc3ccc(Br)cc3)c2)c1` [CBK263241], for which the viability at 28.5 h, 10 µM is 87%. Regarding `COc1ccccc1NC(=O)N1CCC2(CC1)NC(=O)Cc1cc3ccccc3cc12` [CBK047284], the viability at 28.5 h, 10 µM came out at 92.1%. For the compound `Cc1nn(CCCC(=O)Nc2sc3c(c2C#N)CCC(C(C)(C)C)C3)c(C)c1[N+](=O)[O-]` (stereo not shown) [CBK268982], the viability at 28.5 h, 10 µM amounted to 103%.

For `Cc1cc(NC2CC3CCCC(C2)N3C)nc(N)n1` (stereo not shown) [CBK170333], the viability at 28.5 h, 10 µM is 88.4%.

With `CSc1ccc(-c2nccnc2OC(c2ccccc2)c2ccccc2)cc1` [CBK106797], the viability at 28.5 h, 10 µM turned out to be 90.2%. In the case of `O=C(NCc1ccc(F)cc1)c1cc(Br)cnc1NCc1cccnc1` [CBK076405], the viability at 28.5 h, 10 µM was found to be 104%.

As to `Cc1cccc(=O)n1CCCn1cnc2nccnc2c1=O` [CBK307186], the viability at 28.5 h, 10 µM amounted to 116%. Regarding `CCn1c(COc2ccccc2)nnc1Sc1ccc([N+](=O)[O-])cc1C=O` [CBK267888], the viability at 28.5 h, 10 µM is 105%.

Turning to `CN(C)CCCC(=O)Nc1ccc2[nH]ccc2c1` [CBK159698], the viability at 28.5 h, 10 µM is 114%. Consider `c1ccc2c(c1)OCC(COc1nccnc1OC1CCN(CC3CC3)CC1)O2` (stereo not shown) [CBK083001T], for which the viability at 28.5 h, 10 µM was found to be 96.5%.

For `O=C(OCCc1ccncc1)N1CCc2ccccc21` [CBK200140], the viability at 28.5 h, 10 µM amounted to 94.9%. Turning to `O=C(NCCCN1CCCC1)Nc1ccccc1[N+](=O)[O-]` [CBK267959], the viability at 28.5 h, 10 µM amounted to 97%.

Staying with this data set, now noted: human, hela cells, % viability, bulk resorufin, single well.
Turning to `Cc1cc(/C=C2\C(=O)NC(=O)N(c3ccccc3F)C2=O)c(C)n1-c1cc(C(=O)O)cc(C(=O)O)c1` [CBK264028], the viability at 28.5 h, 10 µM was determined as 89.9%. Regarding `O=C(O)C=CC(=O)Nc1ccc(SC(F)(F)C(F)(F)C(F)(F)F)cc1` [CBK296104], the viability at 28.5 h, 10 µM is 107%.

Consider `CC(C)(C)c1ccccc1NC(=O)N1CCC2(CC1)OCCO2` [CBK043720], for which the viability at 28.5 h, 10 µM is 91.3%.
